The values that follow come from US8435990B2, “Dihydropyrimidone amides as P2X7 modulators” (Roche Palo Alto LLC, priority 2009, dated 2013).

This test concerns the target T1, human P2X7 (Homo sapiens, UniProt Q99572).
T1 construct: 1321N1 cells stably expressing the full length human P2X7 gene (1321N1-hP2X7)
T1 sequence (Q99572 1-595): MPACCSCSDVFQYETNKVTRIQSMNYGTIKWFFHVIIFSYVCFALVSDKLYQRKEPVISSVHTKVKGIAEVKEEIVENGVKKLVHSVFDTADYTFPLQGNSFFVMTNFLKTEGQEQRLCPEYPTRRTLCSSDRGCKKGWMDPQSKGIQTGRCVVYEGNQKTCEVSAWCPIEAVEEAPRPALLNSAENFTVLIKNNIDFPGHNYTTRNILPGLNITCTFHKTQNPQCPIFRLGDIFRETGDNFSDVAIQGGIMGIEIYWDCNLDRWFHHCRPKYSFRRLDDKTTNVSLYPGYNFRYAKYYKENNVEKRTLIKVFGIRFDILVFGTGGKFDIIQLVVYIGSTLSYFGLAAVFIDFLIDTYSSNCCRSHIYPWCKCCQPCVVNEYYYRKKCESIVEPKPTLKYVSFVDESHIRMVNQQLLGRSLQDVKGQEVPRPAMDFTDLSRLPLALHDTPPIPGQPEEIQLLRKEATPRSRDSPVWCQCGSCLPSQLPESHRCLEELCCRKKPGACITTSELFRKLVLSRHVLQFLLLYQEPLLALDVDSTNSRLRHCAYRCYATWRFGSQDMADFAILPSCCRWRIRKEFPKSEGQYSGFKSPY
The test is described as follows: P2X7 modulator pIC50 of Table 1 (assay not given; Intracellular Calcium Flux (FLIPR) Assay assumed). The format is cell-based. The method, then:
Intracellular Calcium Flux (FLIPR) Assay
Stock solutions of compounds were prepared from powders as a 10 mM DMSO stock solution. These solutions were stored at RT during the two week period of these experiments to prevent freeze-thaw of the DMSO stocks. The DMSO stocks were added to the appropriate assay buffer at a concentration of 10 μM, and then diluted serially to the final concentrations that were tested. No observable precipitate was formed at any time during this process. The aqueous solutions of compounds as well as ATP (Sigma A7699) and BzATP (Sigma B6396) were prepared fresh for each day of experiment.
1321N1 cells stably expressing the full length human P2X7 gene (1321N1-hP2X7) and HEK293 cells stably expressing the full length rat P2X7 gene (HEK293-rP2X7) were obtained from the Roche Cell Culture Facility. 1321N1-hP2X7 cells were grown in Dulbecco's Modified Eagle's Medium (DMEM) high glucose supplemented with 10% FBS and 250 μg/mL G418. HEK293-rP2X7 cells were grown in DMEM/F-12 supplemented with 10% FBS, 1 mM CaCl2, 2 mM MgCl2, 2 mM L-Glutamine and 500 μg/ml G418. Cells were split such that they never became >70% confluent.
On the day prior to the experiment, 1321N1-hP2X7 or HEK293-rP2X7 cells were released into suspension with calcium-free PBS+Versene and washed by centrifugation with calcium-free PBS to remove the Versene. Cells were resuspended in growth medium at a density of 2.5×10^5 cells/mL and seeded into black walled, clear bottom 96 well plates (50,000 cells/well) approximately 18 hr prior to intracellular calcium flux experiments.
On the day of the experiment, plates were washed with FLIPR buffer (calcium- and magnesium-free Hank's Balanced Salt Solution (HBSS) supplemented with 10 mM Hepes, 2.5 mM probenecid and 2 mM calcium chloride) using a BIO-TEK 96 channel plate washer and incubated with […] fluo-3 dye at 37° C. for one hr. The dye was then removed by plate washing and the cells were allowed to equilibrate for 20 min at room temperature with antagonist or vehicle (FLIPR buffer). Agonist (100 μM BzATP final concentration for hP2X7; 5μM BzATP final concentration or rP2X7) was added online with the FLIPR and fluorescence measurements made at 1 sec intervals for 60 sec followed by 3 sec intervals for a further 4 min (5 min total). A final addition of 5 μM ionomycin was made and the maximal BzATP-evoked fluorescence normalized to the maximal ionomycin-evoked fluorescence.
On the technique in general: Calcium assays in cells follow changes in intracellular calcium, usually with a dye or a luminescent sensor.
The term IC50 denotes the midpoint of a concentration-inhibition curve. Turning to `COC[C@H](O)Cn1nccc(-c2ccc(C)c(NC(=O)C3=CN(C)C(=O)N[C@H]3c3ccc(F)cc3)c2)c1=O` [Compound 43, (S)-4-(4-Fluoro-phenyl)-1-methyl-2-oxo-1,2,3,4-tetrahydro-pyrimidine-5-carboxylic acid {5-[2-((R)-2-hydroxy-3-methoxy-propyl)-3-oxo-2,3-dihydro-pyridazin-4-yl]-2-methyl-phenyl}-amide], the IC50 is 29.9 nM.

Turning to `Cc1ccc(-c2ccnn(C)c2=O)cc1NC(=O)C1=CN(C)C(=O)N[C@H]1c1cccc(F)c1` [Compound 44, (S)-4-(3-Fluoro-phenyl)-1-methyl-2-oxo-1,2,3,4-tetrahydro-pyrimidine-5-carboxylic acid [2-methyl-5-(2-methyl-3-oxo-2,3-dihydro-pyridazin-4-yl)-phenyl]-amide], the IC50 was 54.3 nM.

Regarding `CN1C=C(C(=O)Nc2cc(N3CCCC3=O)ccc2Br)[C@H](c2ccc(F)cc2)NC1=O` [Compound 45, (S)-4-(4-Fluoro-phenyl)-1-methyl-2-oxo-1,2,3,4-tetrahydro-pyrimidine-5-carboxylic acid [2-bromo-5-(2-oxo-pyrrolidin-1-yl)-phenyl]-amide], the concentration for half-maximal inhibition (IC50) is 138 nM.

As for `Cc1cc2cnn(C)c2cc1NC(=O)C1=CN(C)C(=O)N[C@H]1c1ccc(F)cc1` [Compound 46], the concentration for half-maximal inhibition (IC50) is 12.2 nM.

Consider `Cc1cc2cn[nH]c2cc1NC(=O)C1=CN(C)C(=O)N[C@H]1c1ccc(F)cc1` [Compound 47, (S)-4-(4-Fluoro-phenyl)-1-methyl-2-oxo-1,2,3,4-tetrahydro-pyrimidine-5-carboxylic acid (5-methyl-1H-indazol-6-yl)-amide], for which the IC50 is 18.2 nM.

As to `Cc1ccc(-n2ccc(=O)[nH]c2=O)cc1NC(=O)C1=CN(C)C(=O)N[C@H]1c1ccc(F)cc1` [Compound 48, (S)-4-(4-Fluoro-phenyl)-1-methyl-2-oxo-1,2,3,4-tetrahydro-pyrimidine-5-carboxylic acid [5-(2,4-dioxo-3,4-dihydro-2H-pyrimidin-1-yl)-2-methyl-phenyl]-amide], the IC50 was 26 nM.

Consider `Cc1ccc(-n2ncccc2=O)cc1NC(=O)C1=CN(C)C(=O)N[C@H]1c1cccc(F)c1` [Compound 49, (S)-4-(3-Fluoro-phenyl)-1-methyl-2-oxo-1,2,3,4-tetrahydro-pyrimidine-5-carboxylic acid [2-methyl-5-(6-oxo-6H-pyridazin-1-yl)-phenyl]-amide], for which the IC50 is 105 nM.

For `Cc1ccc(-n2cccc(C)c2=O)cc1NC(=O)C1=CN(C)C(=O)N[C@H]1c1ccc(F)cc1` [Compound 50, (S)-4-(4-Fluoro-phenyl)-1-methyl-2-oxo-1,2,3,4-tetrahydro-pyrimidine-5-carboxylic acid [2-methyl-5-(3-methyl-2-oxo-2H-pyridin-1-yl)-phenyl]-amide], the IC50 is 55 nM.

On to `CN1C=C(C(=O)Nc2cccc3c(=O)n(C)ccc23)[C@H](c2ccc(F)cc2)NC1=O` [Compound 51, (S)-4-(4-Fluoro-phenyl)-1-methyl-2-oxo-1,2,3,4-tetrahydro-pyrimidine-5-carboxylic acid (2-methyl-1-oxo-1,2-dihydro-isoquinolin-5-yl)-amide], for which the concentration for half-maximal inhibition (IC50) is 63.1 nM.

With `Cc1ccc(-c2ccnn(C)c2=O)cc1NC(=O)C1=CN(C)C(=O)NC1C1CCC(F)(F)CC1` (stereo not drawn) [Compound 52, 4-(4,4-Difluoro-cyclohexyl)-1-methyl-2-oxo-1,2,3,4-tetrahydro-pyrimidine-5-carboxylic acid [2-methyl-5-(2-methyl-3-oxo-2,3-dihydro-pyridazin-4-yl)-phenyl]-amide], the half-inhibitory concentration (IC50) was 339 nM.

`CN1C=C(C(=O)Nc2cccc3c(=O)n(CCO)ccc23)[C@H](c2ccc(F)cc2)NC1=O` [Compound 53, (S)-4-(4-Fluoro-phenyl)-1-methyl-2-oxo-1,2,3,4-tetrahydro-pyrimidine-5-carboxylic acid [2-(2-hydroxy-ethyl)-1-oxo-1,2-dihydro-isoquinolin-5-yl]-amide]: the half-maximal inhibitory concentration (IC50) is 53.1 nM.

Consider `Cc1ccc(-n2ccccc2=O)cc1NC(=O)C1=CN(C)C(=O)N[C@H]1c1ccc(F)cc1` [Compound 54, (S)-4-(4-Fluoro-phenyl)-1-methyl-2-oxo-1,2,3,4-tetrahydro-pyrimidine-5-carboxylic acid [2-methyl-5-(2-oxo-2H-pyridin-1-yl)-phenyl]-amide], for which the IC50 was 21.6 nM.

Regarding `COc1ccc(-c2ccc(C)c(NC(=O)C3=CN(C)C(=O)N[C@H]3c3ccc(F)cc3)c2)nn1` [Compound 55, (S)-4-(4-Fluoro-phenyl)-1-methyl-2-oxo-1,2,3,4-tetrahydro-pyrimidine-5-carboxylic acid [5-(6-methoxy-pyridazin-3-yl)-2-methyl-phenyl]-amide], the 50% inhibitory concentration (IC50) is 11 nM.

Regarding `Cc1ccc(-n2c(=O)cc[nH]c2=O)cc1NC(=O)C1=CN(C)C(=O)N[C@H]1c1ccc(F)cc1` [Compound 56, (S)-4-(4-Fluoro-phenyl)-1-methyl-2-oxo-1,2,3,4-tetrahydro-pyrimidine-5-carboxylic acid [5-(2,6-dioxo-3,6-dihydro-2H-pyrimidin-1-yl)-2-methyl-phenyl]-amide], the half-maximal inhibitory concentration (IC50) was 3160 nM.

Turning to `Cc1ccc(-c2ccnn(C)c2=O)cc1NC(=O)C1=CN(C)C(=O)N[C@H]1c1ccccc1` [Compound 57, (S)-1-Methyl-2-oxo-4-phenyl-1,2,3,4-tetrahydro-pyrimidine-5-carboxylic acid [2-methyl-5-(2-methyl-3-oxo-2,3-dihydro-pyridazin-4-yl)-phenyl]-amide], the half-inhibitory concentration (IC50) was 3470 nM.

As to `Cc1cc2cnn(CC(=O)N(C)C)c2cc1NC(=O)C1=CN(C)C(=O)N[C@H]1c1ccc(F)cc1` [Compound 58], the half-maximal inhibitory concentration (IC50) was 40.3 nM.

In the case of `Cc1ccc(-c2ccc(=O)n(CCO)n2)cc1NC(=O)C1=CN(C)C(=O)N[C@H]1c1ccc(F)cc1` [Compound 59, (S)-4-(4-Fluoro-phenyl)-1-methyl-2-oxo-1,2,3,4-tetrahydro-pyrimidine-5-carboxylic acid {5-[1-(2-hydroxy-ethyl)-6-oxo-1,6-dihydro-pyridazin-3-yl]-2-methyl-phenyl}-amide], the IC50 was 16.8 nM.

For `Cc1ccc(-c2cccn(C)c2=O)cc1NC(=O)C1=CN(C)C(=O)N[C@H]1c1ccc(F)cc1` [Compound 60, (S)-4-(4-Fluoro-phenyl)-1-methyl-2-oxo-1,2,3,4-tetrahydro-pyrimidine-5-carboxylic acid [2-methyl-5-(1-methyl-2-oxo-1,2-dihydro-pyridin-3-yl)-phenyl]-amide], the IC50 was 5.5 nM.

For `COC[C@H](O)Cn1nc(-c2ccc(C)c(NC(=O)C3=CN(C)C(=O)N[C@H]3c3ccc(F)cc3)c2)ccc1=O` [Compound 61, (S)-4-(4-Fluoro-phenyl)-1-methyl-2-oxo-1,2,3,4-tetrahydro-pyrimidine-5-carboxylic acid {5-[1-((R)-2-hydroxy-3-methoxy-propyl)-6-oxo-1,6-dihydro-pyridazin-3-yl]-2-methyl-phenyl}-amide], the concentration for half-maximal inhibition (IC50) was 40.7 nM.

On to `Cc1cc(Cl)c(OCCO)cc1NC(=O)C1=CN(C)C(=O)NC1c1ccccc1` (stereo not drawn) [Compound 62, 1-Methyl-2-oxo-4-phenyl-1,2,3,4-tetrahydro-pyrimidine-5-carboxylic acid [4-chloro-5-(2-hydroxy-ethoxy)-2-methyl-phenyl]-amide], for which the IC50 is 15 nM.

For `Cc1cc(Cl)c(-n2ncccc2=O)cc1NC(=O)C1=CN(C)C(=O)N[C@H]1c1ccc(F)cc1` [Compound 63, (S)-4-(4-Fluoro-phenyl)-1-methyl-2-oxo-1,2,3,4-tetrahydro-pyrimidine-5-carboxylic acid [4-chloro-2-methyl-5-(6-oxo-6H-pyridazin-1-yl)-phenyl]-amide], the concentration for half-maximal inhibition (IC50) is 51.9 nM.
